Structures are written as SMILES. “Also recorded” adds a separate entry of the source. Where two headings read alike, the source gives them in different places.

The subject of assay [1] is C57Bl/6 mice, pulmonary vasculitis induced by immune complexes. As to the kind of experiment: Pulmonary vasculitis induced by immune complexes: histological analysis of lung sections. The format is in vivo. Conditions: per os before induction; HCQ 10 mg/kg, CB137 10, 30 or 100 mg/kg (FIG. 6). As to the method:
Female C57Bl/6 strain mice from the Jackson Laboratory, 8-10 weeks old and weighing about 20 g, are used in all experiments. The mice are maintained at a temperature of 23° C.±1° C. with 12-hour light/dark cycle. Mice have access to water and food ad libitum and are housed at least one week before the beginning of any experiments.
A retro-orbital blood sampling was performed using capillaries containing heparin on mice anesthetized with isoflurane the day before the manipulation. The next day, the mice were anesthetized with a mixture of ketamine and xylasin (90 mg/kg and 125 mg/kg, respectively). The immune IgG complex is induced in the lungs by intratracheal instillation of 0.5 mg of anti-BSA rabbit antibody (MP Biomedicals, Strasbourg, France) and by the administration of 0.5 mg per mouse of BSA antigen in the caudal vein (Warner et al., 2001 and Warren et al., 1989). The specified treatment (PF-1355, CB137 or solvent alone) is administered enterally. The animals are euthanized 4 hours after intratracheal instillation. […]
The lung sections are examined under a light microscope (Axio LabA1 by Zeiss brand) to assess the intensity of the neutrophil influx and the level of hemorrhage, and to identify the structural alterations. A minimum of 10 fields at 400× magnification is analyzed per animal. […]

Assay [2] deals with MRL/Ipr mice (lupus model). As to the kind of experiment: Survival of MRL/Ipr mice (lupus model). It is filed as in vivo. Conditions: 10 mg/kg IP, compared with HCQ at the same dose (FIG. 1). The method, then: (§1) The MRL/MPJ-Fas (Ipr) (MRL-Ipr) and C57Bl/6 mice for the behavioral experiments are from the Jackson Laboratory and are randomly distributed into 5 groups. All animals were kept at controlled temperature (23° C.+/−1° C.) with a 12-hour day/night cycle, water and ad libitum food.
(§2) Mice received the specified dose of hydroxychloroquine (Tokyo Chemical Industry), CB137 or carrier intraperitoneally (IP), every 24 hours and for 5 days over a 10-week period. With regard to the MRL/Ipr mice, treatment started at 7 weeks of age, and ended at 23 weeks of age where a significant proportion of untreated mice died. With regard to the C57B1/6 mice, the same treatment program was carried out and the mice were sacrificed after […]. HCQ and CB137 were each freshly prepared in physiological saline and injected into the mice in a final volume of 50 μL. The MRL/Ipr mice were examined daily for skin lesions. For histological analysis, the animals were sacrificed and the tissues were rapidly dissected and immediately post-fixed.

For assay [3], the system named is MRL/Ipr mice (lupus model). As to the kind of experiment: Development of the disease: dermatitis in MRL/Ipr mice. The format is in vivo. Conditions: 10 mg/kg, compared to carrier and HCQ 10 mg/kg (FIG. 2). As to the method:
as §1, §2
Dermatitis was less common in mice treated with CB137 10 mg/kg compared to control (carrier) mice and HCQ treated mice (10 mg/kg (FIG. 2).

For a further assay, the target named is T1, αB-crystalline (αB-C) (Homo sapiens, UniProt P02511).
T1 construct: purchased
T1 sequence (P02511 1-175): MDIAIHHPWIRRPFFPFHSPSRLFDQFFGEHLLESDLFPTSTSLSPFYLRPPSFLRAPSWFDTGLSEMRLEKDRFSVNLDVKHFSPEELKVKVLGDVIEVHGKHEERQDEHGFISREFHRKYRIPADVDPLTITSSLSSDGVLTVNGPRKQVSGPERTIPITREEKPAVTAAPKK
As to the kind of experiment: Surface plasmon resonance (Biacore 3000) affinity on αB-crystalline. The format is binding. As to conditions: SPR at 25° C., read-out: Kd (M) on crystallin. As to the method: Using the surface plasmon resonance technology (Biacore 3000), the interaction constants between HCQ analogues (HCQa) and myeloperoxidase (MPO) targets and αB-crystalline (αB-C) were measured at 25° C. according to 12 different series of experiments. First, HCQ analogues at five different concentrations (10^−6 to 10^−8 M) were injected at a rate of 10^−6 L/min for 250 s on the MPO and αB-C targets as well as on the ERK1 and ERK2 controls, followed by a dissociation phase of 150 s.
The kinetic parameters were measured using the BIAevaluation 4.1 software. The set of resonance unit values obtained with the controls were subtracted from those obtained with MPO and αB-C to compensate for non-specific bonds.
The differences in Kd values for the myeloperoxidase (MPO) and αB-crystalline (αB-C) enzymes in Tables 1 and 2 are due to the variability of commercial batches. Nevertheless, the difference between the Kd of the compounds HCQ and CB137 remains identical according to these two tests.
Analysis of the compounds in the form of sulphate salts according to the method described above: […]

The mark [4] stands for this setting: Table 2, compounds in the form of sulphate salts.

On to `CCN(CCO)CCCC(C)Nc1c(Cl)cnc2cc(Cl)ccc12` (centres unmarked) [CB137], for which the “inhibition of pulmonary vasculitis / pulmonary inflammation induced by immune complexes (lung sections)” value in assay [1] is given as “inhibiting pulmonary vasculitis; also recorded: limits pulmonary inflammation”. Further, the survival rate entry in assay [2] is listed as “significantly higher survival rate”. In addition, the “dermatitis (rate of mice having dermatitis)” value in assay [3] is listed as “less common”. Also, the Kd is 1.75e-07 M on αB-crystalline (αB-C) (Table 1) and 3e-05 M at αB-crystalline (αB-C) (setting [4]).

As for `CCN(CCO)CCCC(C)Nc1ccnc2cc(Cl)ccc12` (centres unmarked) [Commercial HCQ, hydroxychloroquine], the “inhibition of pulmonary vasculitis / pulmonary inflammation induced by immune complexes (lung sections)” value in assay [1] is given as “inhibiting pulmonary vasculitis”. For the same molecule, the Kd stood at 2.2e-08 M at αB-crystalline (αB-C) (Table 1) and 1e-06 M on αB-crystalline (αB-C) (setting [4]).

The record behind these values is patent publication US10647677B2, “Analogues of hydroxychloroquine (HCQ) without retinal toxicity” (Inoviem Scientific, priority 2015, dated 2020).
